Measured values reported in patent US20230158151A1 (NURIX THERAPEUTICS, INC., priority 2021, published 2023).

Target: T1, ITK (Homo sapiens, UniProt Q08881)
T1 construct: Compounds provided herein were assayed in vitro with ITK HiBit cell lines; endogenous in cells; host or cells: Molt4 (ATCC CRL-1552 [sic]), monoclonal clone 1C10
T1 sequence (Q08881 1-620): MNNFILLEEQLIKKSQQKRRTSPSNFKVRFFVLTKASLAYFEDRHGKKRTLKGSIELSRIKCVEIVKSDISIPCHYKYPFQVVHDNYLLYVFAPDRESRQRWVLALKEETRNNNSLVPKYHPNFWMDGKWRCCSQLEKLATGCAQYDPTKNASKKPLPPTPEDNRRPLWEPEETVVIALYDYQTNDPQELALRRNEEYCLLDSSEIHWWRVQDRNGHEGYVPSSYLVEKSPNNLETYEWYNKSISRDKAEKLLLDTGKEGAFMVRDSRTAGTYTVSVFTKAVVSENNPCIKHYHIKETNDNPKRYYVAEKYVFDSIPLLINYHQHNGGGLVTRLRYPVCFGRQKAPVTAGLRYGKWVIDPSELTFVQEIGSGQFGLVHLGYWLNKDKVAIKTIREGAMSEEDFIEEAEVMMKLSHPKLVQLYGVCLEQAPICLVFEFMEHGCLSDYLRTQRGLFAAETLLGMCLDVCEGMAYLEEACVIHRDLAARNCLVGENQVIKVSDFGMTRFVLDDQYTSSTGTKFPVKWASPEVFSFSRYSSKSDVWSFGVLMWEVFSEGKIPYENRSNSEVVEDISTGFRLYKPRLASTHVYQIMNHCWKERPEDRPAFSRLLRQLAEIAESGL
Test: ITK Degradation HiBiT Assay
Format: cell-based
Settings: C-terminal HiBiT-tagged Molt4 cells, 4 hrs incubation; for Dmax: MOLT-4, read-out: HiBiT DMax (%)
Description: Compounds provided herein were assayed in vitro with ITK HiBit cell lines. Compound dilution series (11-point, 5 fold dilutions in DMSO, columns 2-12 with replicate in rows A/B, C/D, E/F, G, H at 2000× the final required concentrations were prepared in 96 well plate (Falcon, cat. no. 353077). Column 1, rows A-H were control DMSO. The 2000× solutions ranged from 2 mM to 1.024 nM (final assay concentration range 1 μM to […]). The 2000× solutions were added to cells in […], for a final DMSO concentration of 0.5% and final assay compound concentration of 1×. For the cells, C-terminal HiBiT-tagged Molt4 cells (ATCC CRL-1552, monoclonal cell line clone 1C10) were plated at 1×10^6 cells/mL, 100 μL/well ([…]) in complete RPMI (10% FBS, 1% L-glutamine). The cells were incubated with compound 32 and compound 30 for 4 hrs at 32° C./6% CO2.
Following incubation, 100 μL of complete Nano-Glo HiBiT Lytic Detection Reagent (Nano-Glo HiBiT Lytic Buffer with 1:50 Nano-Glo HiBiT Lytic Substrate and 1:100 LgBiT Protein; Promega cat. no. N3O40) was added. Cells were further incubated for 10 min at room temperature (RT). Luminescence units (LU) were read on an EnVision plate reader (Perkin Elmer, 0.1 sec per well). Percent ITK remaining per sample was calculated as follows: […]
Using Graphpad Prism, % ITK remaining values were plotted as a function of compound concentration. To determine DC50 and Dmax values, resulting curves were fit to the Prism curve-fitting equation “log(inhibitor) vs response−Variable slope (four parameters)” (reported best fit value IC50 used as DC50). ITK was measured with antibody-based MSD (Meso-Scale Discovery) assays shown below.

| DC50 [pM] | Dmax [%] | Compound |
| --- | --- | --- |
| 40 | 80 | CN(C(=O)C1CCN(C(=O)c2ccc3cc(-c4n[nH]c5c4CCC(C)(C)C5)[nH]c3c2)CC1)C1CCN(c2ccc(C3CCC(=O)NC3=O)cn2)CC1 (stereo not drawn) [Compound 33, 1-(2-(6,6-dimethyl-4,5,6,7-tetrahydro-1H-indazol-3-yl)-1H-indole-6-carbonyl)-N-(1-(5-(2,6-dioxopiperidin-3-yl)pyridin-2-yl)piperidin-4-yl)-N-methylpiperidine-4-carboxamide] |
| < 10 | 83 | C[C@@]12Cc3[nH]nc(C(=O)Nc4cnn([C@H](c5ccccc5)C5CN(C(=O)C6CN(c7ccc(C8CCC(=O)NC8=O)cn7)C6)C5)c4)c3C[C@@H]1C2(F)F (stereo partly drawn) [Compound 21, (4aS,5aR)—N-(1-((1S)-(1-(1-(5-(2,6-dioxopiperidin-3-yl)pyridin-2-yl)azetidine-3-carbonyl)azetidin-3-yl)(phenyl)methyl)-1H-pyrazol-4-yl)-5,5-difluoro-5a-methyl-1,4,4a,5,5a,6-hexahydrocyclopropa[f]indazole-3-carboxamide] |
|  | 27 | CC1(C)CCc2c(-c3cc4ccc(C(=O)N5CCC(CN6CCN(c7cccc(C8CCC(=O)NC8=O)n7)CC6)CC5)cc4[nH]3)n[nH]c2C1 (stereo not drawn) [Compound 41] |
|  | 73 | CC1(C)CCc2c(-c3cc4ccc(C(=O)N5CCC(CC6CCN(c7ccc(C8CCC(=O)NC8=O)cn7)CC6)CC5)cc4[nH]3)n[nH]c2C1 (stereo not drawn) [Compound 19, 3-(6-(4-((1-(2-(6,6-dimethyl-4,5,6,7-tetrahydro-1H-indazol-3-yl)-1H-indole-6-carbonyl)piperidin-4-yl)methyl)piperidin-1-yl)pyridin-3-yl)piperidine-2,6-dione] |
|  | 78 | C[C@@]12Cc3[nH]nc(C(=O)Nc4cnn(C5CN(C(=O)C6CN(c7ccc(C8CCC(=O)NC8=O)cn7)C6)C5)c4)c3C[C@@H]1C2(F)F (stereo partly drawn) [Compound 14, (4aS,5aR)—N-(1-(1-(1-(5-(2,6-dioxopiperidin-3-yl)pyridin-2-yl)azetidine-3-carbonyl)azetidin-3-yl)-1H-pyrazol-4-yl)-5,5-difluoro-5a-methyl-1,4,4a,5,5a,6-hexahydrocyclopropa[f]indazole-3-carboxamide] |
| 680 | 87 | CN(C(=O)c1ccc2cc(-c3n[nH]c4c3CCC(C)(C)C4)[nH]c2c1)C1CCN(CC2CCN(c3ccc(C4CCC(=O)NC4=O)cn3)CC2)CC1 (stereo not drawn) [Compound 18, 2-(6,6-dimethyl-4,5,6,7-tetrahydro-1H-indazol-3-yl)-N-(1-((1-(5-(2,6-dioxopiperidin-3-yl)pyridin-2-yl)piperidin-4-yl)methyl)piperidin-4-yl)-N-methyl-1H-indole-6-carboxamide] |
| < 1 | 83 | C[C@@]12Cc3[nH]nc(-c4cc5ccc(C(=O)N6CCN(CC7CCN(c8ccc(C9CCC(=O)NC9=O)cn8)CC7)CC6)cc5[nH]4)c3C[C@@H]1C2(F)F (stereo partly drawn) [Compound 20, 3-(6-(4-((4-(2-((4aS,5aR)-5,5-difluoro-5a-methyl-1,4,4a,5,5a,6-hexahydrocyclopropa[f]indazol-3-yl)-1H-indole-6-carbonyl)piperazin-1-yl)methyl)piperidin-1-yl)pyridin-3-yl)piperidine-2,6-dione] |
| 250 | 85 | C[C@@]12Cc3[nH]nc(C(=O)Nc4cnn(C5CN(CC6CCN(c7ccc(C8CCC(=O)NC8=O)cn7)CC6)C5)c4)c3C[C@@H]1C2(F)F (stereo partly drawn) [Compound 12, (4aS,5aR)—N-(1-(1-((1-(5-(2,6-dioxopiperidin-3-yl)pyridin-2-yl)piperidin-4-yl)methyl)azetidin-3-yl)-1H-pyrazol-4-yl)-5,5-difluoro-5a-methyl-1,4,4a,5,5a,6-hexahydrocyclopropa[f]indazole-3-carboxamide] |
|  | 48 | CN(C(=O)CCC1CCN(c2ccc(C3CCC(=O)NC3=O)cn2)C1)c1ccc2cc(-c3n[nH]c4c3C[C@@H]3C(F)(F)[C@]3(C)C4)[nH]c2c1 (stereo partly drawn) [Compound 25, N-(2-((4aS,5aR)-5,5-difluoro-5a-methyl-1,4,4a,5,5a,6-hexahydrocyclopropa[f]indazol-3-yl)-1H-indol-6-yl)-3-(1-(5-(2,6-dioxopiperidin-3-yl)pyridin-2-yl)pyrrolidin-3-yl)-N-methylpropanamide] |
|  | 85 | CN(C(=O)C1CCN(CC2CCN(c3ccc(C4CCC(=O)NC4=O)cn3)CC2)CC1)c1ccc2cc(-c3n[nH]c4c3C[C@@H]3C(F)(F)[C@]3(C)C4)[nH]c2c1 (stereo partly drawn) [Compound 5, N-(2-((4aS,5aR)-5,5-difluoro-5a-methyl-1,4,4a,5,5a,6-hexahydrocyclopropa[f]indazol-3-yl)-1H-indol-6-yl)-1-((1-(5-(2,6-dioxopiperidin-3-yl)pyridin-2-yl)piperidin-4-yl)methyl)-N-methylpiperidine-4-carboxamide] |
| 15000 | 68 | CC1(C)CCc2c(-c3cc4ccc(C(=O)N5CCN(CCCCc6ccc(C7CCC(=O)NC7=O)cc6)CC5)cc4[nH]3)n[nH]c2C1 (stereo not drawn) [Compound 40, 3-(4-(4-(4-(2-(6,6-dimethyl-4,5,6,7-tetrahydro-1H-indazol-3-yl)-1H-indole-6-carbonyl)piperazin-1-yl)butyl)phenyl)piperidine-2,6-dione] |
|  | 90 | C[C@@]12Cc3[nH]nc(-c4cc5ccc(N6CCC7(CCN(C(=O)C8CCN(c9ccc(C%10CCC(=O)NC%10=O)cn9)CC8)CC7)C6=O)cc5[nH]4)c3C[C@@H]1C2(F)F (stereo partly drawn) [Compound 16, 3-(6-(4-(2-(2-((4aS,5aR)-5,5-difluoro-5a-methyl-1,4,4a,5,5a,6-hexahydrocyclopropa[f]indazol-3-yl)-1H-indol-6-yl)-1-oxo-2,8-diazaspiro[4.5]decane-8-carbonyl)piperidin-1-yl)pyridin-3-yl)piperidine-2,6-dione] |
| 2600 | 60 | CC1(C)CCc2c(-c3cc4ccc(C(=O)N5CCN(CCC#Cc6ccc(C7CCC(=O)NC7=O)cc6)CC5)cc4[nH]3)n[nH]c2C1 (stereo not drawn) [Compound 34, 3-(4-(4-(4-(2-(6,6-dimethyl-4,5,6,7-tetrahydro-1H-indazol-3-yl)-1H-indole-6-carbonyl)piperazin-1-yl)but-1-yn-1-yl)phenyl)piperidine-2,6-dione] |
| 1300 | 91 | C[C@@]12Cc3[nH]nc(C(=O)Nc4cnn(C5CN(C(=O)C6CCN(c7ccc(C8CCC(=O)NC8=O)cn7)CC6)C5)c4)c3C[C@@H]1C2(F)F (stereo partly drawn) [Compound 13, (4aS,5aR)—N-(1-(1-(1-(5-(2,6-dioxopiperidin-3-yl)pyridin-2-yl)piperidine-4-carbonyl)azetidin-3-yl)-1H-pyrazol-4-yl)-5,5-difluoro-5a-methyl-1,4,4a,5,5a,6-hexahydrocyclopropa[f]indazole-3-carboxamide] |
| < 10 | 89 | C[C@@]12Cc3[nH]nc(-c4cc5ccc(N6CCC7(CCN(CCC8CCN(c9ccc(C%10CCC(=O)NC%10=O)cn9)CC8)CC7)C6=O)cc5[nH]4)c3C[C@@H]1C2(F)F (stereo partly drawn) [Compound 17, 3-(6-(4-(2-(2-(2-((4aS,5aR)-5,5-difluoro-5a-methyl-1,4,4a,5,5a,6-hexahydrocyclopropa[f]indazol-3-yl)-1H-indol-6-yl)-1-oxo-2,8-diazaspiro[4.5]decan-8-yl)ethyl)piperidin-1-yl)pyridin-3-yl)piperidine-2,6-dione] |
